How the values were obtained:
Type in all cases: biochemical
Sirt1 = target: T1, Sirt1 (Homo sapiens, UniProt Q96EB6); assay: Fluorimeter delipoylation assay of probe KTlip with Sirt1; details: KTlip incubated with Sirt1 at 37° C. in HEPES buffer (pH 8.0); compared with Sirt2
T1 construct: made in house
T1 sequence (Q96EB6 1-747): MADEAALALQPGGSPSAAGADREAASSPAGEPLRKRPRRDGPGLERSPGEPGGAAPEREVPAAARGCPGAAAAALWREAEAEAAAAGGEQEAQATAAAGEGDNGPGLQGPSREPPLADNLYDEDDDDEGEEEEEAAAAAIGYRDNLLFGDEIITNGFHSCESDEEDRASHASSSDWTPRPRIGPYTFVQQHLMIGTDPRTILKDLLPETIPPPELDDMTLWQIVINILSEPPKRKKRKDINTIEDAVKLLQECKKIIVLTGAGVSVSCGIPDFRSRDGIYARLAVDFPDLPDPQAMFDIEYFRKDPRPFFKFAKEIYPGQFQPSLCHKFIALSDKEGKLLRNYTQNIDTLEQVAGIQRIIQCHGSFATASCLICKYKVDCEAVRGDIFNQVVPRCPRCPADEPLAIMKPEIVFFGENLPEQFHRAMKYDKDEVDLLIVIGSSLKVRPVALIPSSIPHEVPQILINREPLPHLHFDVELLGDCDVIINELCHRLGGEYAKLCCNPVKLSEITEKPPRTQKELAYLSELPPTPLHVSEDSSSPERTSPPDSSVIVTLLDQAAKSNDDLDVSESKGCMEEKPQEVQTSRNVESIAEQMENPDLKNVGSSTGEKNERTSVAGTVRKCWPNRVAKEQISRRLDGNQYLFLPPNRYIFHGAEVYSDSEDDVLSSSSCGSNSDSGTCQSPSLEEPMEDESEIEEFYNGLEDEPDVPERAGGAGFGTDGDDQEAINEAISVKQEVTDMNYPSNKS
Protocol: (§1) The probe KTlip following was first synthesized. The capacity of HDACs to recognize and remove the lipoyl group of KTlip was then examined by a fluorimeter assay. Briefly, KTlip was incubated with various HDACs at 37° C. in HEPES buffer (pH 8.0). The fluorescence of the enzymatic reactions was then measured accordingly. […] Further HPLC and MS analysis confirmed that the molecular weight of the newly generated peak corresponded to the expected tandem delipoylated/exchanged product (FIG. 4A,B). […] After enzymatic reaction with Sirt2, a shift of peak absorption from 380 nm to 480 nm was clearly observed. (FIG. 4C). Through detailed kinetic study, the first-order rate constant of the reaction was determined to be 0.013 min−1. […]
(§2) The probe KTlip was incubated with sirtuin and NAD+ at 37° C. in 20 mM HEPES buffer (pH 8.0) containing 150 mM NaCl, 1 mM MgCl2, and 2.7 mM KCl. […] When the enzymatic reaction was complete, the reaction was applied for absorption and fluorescence measurement. The parameter set for absorbance measurement was as follows: UV-visible light, collection region: 300-550 nm. The parameter set for fluorescence measurements was as follows: λex=480 nm, slit width: 5 nm, collection region: 510-600 nm.

Sirt2 = target: T2, Sirt2 (Homo sapiens, UniProt Q8IXJ6); assay: Fluorimeter delipoylation assay of probe KTlip with Sirt2
T2 construct: made in house
T2 sequence (Q8IXJ6 1-389): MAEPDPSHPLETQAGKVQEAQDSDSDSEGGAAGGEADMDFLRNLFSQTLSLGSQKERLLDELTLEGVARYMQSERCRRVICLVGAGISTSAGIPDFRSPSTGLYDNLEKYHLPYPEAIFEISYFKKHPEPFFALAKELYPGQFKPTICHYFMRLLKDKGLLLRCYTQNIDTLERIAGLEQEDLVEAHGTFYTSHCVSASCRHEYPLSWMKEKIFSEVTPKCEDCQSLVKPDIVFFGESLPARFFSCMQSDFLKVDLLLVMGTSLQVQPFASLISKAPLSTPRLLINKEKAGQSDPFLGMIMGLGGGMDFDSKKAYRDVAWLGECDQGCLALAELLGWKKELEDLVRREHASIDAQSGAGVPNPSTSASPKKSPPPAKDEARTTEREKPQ
Protocol: as §1, §2

Sirt6 = target: T3, Sirt6 (Homo sapiens, UniProt Q8N6T7); assay: Fluorimeter delipoylation assay of probe KTlip with Sirt6; details: KTlip incubated with Sirt6 at 37° C. in HEPES buffer (pH 8.0)
T3 construct: made in house
Protocol: as §1, §2

HDAC8 [1] = target: T4, HDAC8 (Homo sapiens, UniProt Q9BY41); assay: HPLC analysis of the enzymatic reaction of KTlip with HDAC8; details: KTlip 40 μM, HDAC8 80 ng/μl, 20 mM HEPES pH 8.0, 2 hours reaction
T4 sequence (Q9BY41 1-377): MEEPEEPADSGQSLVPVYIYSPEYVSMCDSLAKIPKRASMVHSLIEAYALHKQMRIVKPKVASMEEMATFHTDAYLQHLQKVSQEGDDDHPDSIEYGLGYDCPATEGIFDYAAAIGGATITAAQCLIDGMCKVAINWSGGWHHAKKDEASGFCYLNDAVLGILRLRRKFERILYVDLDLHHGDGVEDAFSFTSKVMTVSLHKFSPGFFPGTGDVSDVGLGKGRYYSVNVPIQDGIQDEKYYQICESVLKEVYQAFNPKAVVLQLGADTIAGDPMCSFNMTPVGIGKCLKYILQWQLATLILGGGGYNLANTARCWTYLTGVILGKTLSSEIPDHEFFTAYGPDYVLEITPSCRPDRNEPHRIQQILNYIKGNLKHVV
Protocol: FIG. 6 depicts HPLC analysis of the enzymatic reaction of KTlip (40 μM) with HDAC8 (80 ng/μl) in the reaction buffer (20 mM HEPES buffer at pH 8.0, 150 mM NaCl, 1 mM MgCl2 and 2.7 mM KCl).
The probe KTlip following was first synthesized. The capacity of HDACs to recognize and remove the lipoyl group of KTlip was then examined by a fluorimeter assay. Briefly, KTlip was incubated with various HDACs at 37° C. in HEPES buffer (pH 8.0). The fluorescence of the enzymatic reactions was then measured accordingly. […] Further HPLC and MS analysis confirmed that the molecular weight of the newly generated peak corresponded to the expected tandem delipoylated/exchanged product (FIG. 4A,B). […] After enzymatic reaction with Sirt2, a shift of peak absorption from 380 nm to 480 nm was clearly observed. (FIG. 4C). Through detailed kinetic study, the first-order rate constant of the reaction was determined to be 0.013 min−1. The Km value of KTlip obtained from the fluorescent method matched well with that from the traditional HPLC method (FIG. 5), underscoring that probe KTlip can serve as a useful tool for detecting enzymatic delipoylation activity.

Sirt3 = target: T5, Sirt3 (Homo sapiens, UniProt Q9NTG7); assay: Fluorimeter delipoylation assay of probe KTlip with Sirt3; details: KTlip incubated with Sirt3 at 37° C. in HEPES buffer (pH 8.0)
T5 construct: made in house
T5 sequence (Q9NTG7 1-399): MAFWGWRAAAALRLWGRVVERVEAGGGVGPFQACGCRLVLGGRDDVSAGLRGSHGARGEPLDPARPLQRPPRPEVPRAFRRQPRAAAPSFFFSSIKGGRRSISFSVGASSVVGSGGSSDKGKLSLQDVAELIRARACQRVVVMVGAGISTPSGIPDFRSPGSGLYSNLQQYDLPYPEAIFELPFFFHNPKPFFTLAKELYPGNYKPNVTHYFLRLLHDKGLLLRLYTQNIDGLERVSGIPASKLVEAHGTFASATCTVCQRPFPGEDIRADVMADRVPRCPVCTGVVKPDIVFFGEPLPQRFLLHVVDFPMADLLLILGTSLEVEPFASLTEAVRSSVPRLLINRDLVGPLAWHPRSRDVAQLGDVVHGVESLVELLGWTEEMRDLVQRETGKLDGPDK
Protocol: as §1, §2

HDAC8 [2] = target: T4, HDAC8; assay: Fluorimeter delipoylation assay of probe KTlip with HDAC8; details: KTlip incubated with HDAC8 at 37° C. in HEPES buffer (pH 8.0)
Protocol: as §1, §2

Sirt5 = target: T6, Sirt5 (Homo sapiens, UniProt Q9NXA8); assay: Fluorimeter delipoylation assay of probe KTlip with Sirt5; details: KTlip incubated with Sirt5 at 37° C. in HEPES buffer (pH 8.0)
T6 construct: made in house
T6 sequence (Q9NXA8 37-310): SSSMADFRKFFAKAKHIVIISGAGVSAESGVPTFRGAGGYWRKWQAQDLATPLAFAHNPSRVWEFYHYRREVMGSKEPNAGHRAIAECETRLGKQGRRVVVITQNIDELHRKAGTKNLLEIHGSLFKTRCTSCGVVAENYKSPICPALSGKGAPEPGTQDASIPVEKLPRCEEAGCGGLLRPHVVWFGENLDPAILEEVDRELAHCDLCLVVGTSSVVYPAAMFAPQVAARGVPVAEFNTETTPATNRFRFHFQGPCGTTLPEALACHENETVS
Protocol: as §1, §2

T3 sequence (Q8N6T7 whole entry, species assumed): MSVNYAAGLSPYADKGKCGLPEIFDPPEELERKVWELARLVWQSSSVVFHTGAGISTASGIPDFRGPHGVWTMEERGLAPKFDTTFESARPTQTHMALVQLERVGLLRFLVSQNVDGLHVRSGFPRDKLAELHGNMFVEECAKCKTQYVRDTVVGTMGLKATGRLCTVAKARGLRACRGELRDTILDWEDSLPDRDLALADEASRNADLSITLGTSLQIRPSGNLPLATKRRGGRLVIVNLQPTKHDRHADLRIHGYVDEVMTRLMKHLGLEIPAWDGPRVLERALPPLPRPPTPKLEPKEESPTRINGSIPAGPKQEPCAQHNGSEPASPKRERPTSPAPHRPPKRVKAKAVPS

## CC(C)(C)OC(=O)N[C@@H](CCCCNC(=O)CCCCC1CCSS1)C(=O)NCCOCCOc1ccc([N+](=O)[O-])c2nonc12 (some centres unmarked) [KTlip]
Sirt1
  fluorescence signal: much lower fluorescence signal
Sirt2; KTlip incubated with Sirt2 at 37° C. in HEPES buffer (pH 8.0), NAD+, λex 480 nm
  fluorescence increase: 60 fold
Sirt2; delipoylation of KTlip by Sirt2, fit of fluorescence data to 1−exp(−kt)
  first-order rate constant of the reaction: 0.013 min⁻¹
Sirt6
  fluorescence increase: did not show a noticeable fluorescence increase
HDAC8 [1]
  delipoylated product (HPLC): no delipoylated product observed
Sirt3
  fluorescence increase: did not show a noticeable fluorescence increase
HDAC8 [2]
  fluorescence increase: did not show a noticeable fluorescence increase
Sirt5
  fluorescence increase: did not show a noticeable fluorescence increase
